Experimental data reported in publication PMC10940318, “Targeted intracellular delivery of dimeric STINGa by two pHLIP peptides for treatment of solid tumors” (Frontiers in Pharmacology, 2024).

How the values were obtained:
[1] = Self-immolation kinetics of the S-S linker and payload release after DTT, by HPLC; assay type: physicochemical; conditions: DTT in 50 mM phosphate buffer, 150 mM NaCl, pH 7.4; HPLC at 0.5-48 h, UV 220/280/325 nm
Description: Figure S3. Kinetics of self-immolation of 2pHLIP-dMSA. […] Starting 2pHLIP-dMSA is shown on A.
Figure S4. Self-immolation kinetics of pHLIP-mMSA. HPLC chromatograms recorded at 280 nm and 325 nm for pHLIP-mMSA treated with DTT dissolved in 50 mM phosphate buffer containing 150 mM NaCl pH 7.4 at different time points ([…]) after addition of DTT (A-G) and the retention time for mMSA (H) and pHLIP (I) are shown. Starting pHLIP-mMSA is shown on A.

[2] = Stability in human plasma; assay type: in vitro ADME; conditions: single donor human plasma, 200 µM, 0-24 h at 37°C, methanol precipitation, HPLC C18, UV 220/280/325 nm
Description: Plasma proteins were precipitated by methanol (1:5 volume ratio of plasma to methanol) and centrifuged for 10 min at 13.4 rpm. The supernatant was collected and analyzed by HPLC using a Zorbax SB-C18 4.6 × 250 mm, 5 μm column with a gradient from 20% to 80% acetonitrile in water containing 0.05% TFA. Chromatograms were recorded at 220 nm, 280 nm and 325 nm.

[3] = Stability in mouse plasma; conditions: BALB/c mouse plasma, 200 µM
Description: Plasma proteins were precipitated by methanol (1:5 volume ratio of plasma to methanol) and centrifuged for 10 min at […]. The supernatant was collected and analyzed by HPLC using a Zorbax SB-C18 4.6 × 250 mm, 5 μm column with a gradient from 20% to 80% acetonitrile in water containing 0.05% TFA. Chromatograms were recorded at 220 nm, 280 nm and 325 nm.

[4] = Blood clearance (PK) by whole blood fluorescence imaging; assay type: in vivo, Balb/c mice; conditions: single RO injection of 2(ICG-pHLIP)-dMSA 50 µM 100 µL, CT26 tumor-bearing female Balb/c mice; whole blood fluorescence, exponential fit
Description: (§1) For biodistribution studies 5 × 10^4 of CT26 cancer cells were injected SQ in 100 µL of growth medium into the right flank of female Balb/c mice and tumors were grown until they reached 150–250 mm^3 in volume. Then a single retro-orbital (RO) injection of 50 μM 100 μL of 2(ICG-pHLIP)-dMSA was performed. Animals were euthanized at 5 min, 1, 4, 24, 48, 72, and 120 h post-injection, blood was collected in K2 EDTA vacutainer blood collection tubes (BD), and necropsy was performed immediately after animals were euthanized. Blood, tumors and major organs (kidney, liver, spleen, pancreas, lung, heart, large and small intestines, bone, muscle, brain) were collected, and imaged ex vivo immediately after necropsy. Blood (200 µL) was imaged in 96-well plates with black bottom and walls.
(§2) The in vivo and ex vivo bright field and near-infrared fluorescent imaging employed a Stryker 1588 AIM endoscopic system with L10 AIM Light Source (808 nm excitation and collection of light in the range of approximately of 815–850 nm), and a 1588 AIM Camera using a 10 mm scope. The lens was kept at a fixed distance from the surface of the organs, within an enclosed (light-protected) area. Calibration curves converting laser and gain settings were established by imaging of pHLIP-ICG solution at different concentrations. The ex vivo fluorescence imaging of tissue specimens was performed using three different laser settings and six different gain settings. The digital fluorescence images were split into RGB channels, with the green channel being analyzed using ImageJ program to calculate the average fluorescence intensity. All average intensities were adjusted based on their capture settings and using calibration curves to present fluorescence intensities corresponding to the unified (the same) settings.

CT26 tumor = assay: Biodistribution and tumor targeting by ex vivo NIR fluorescence imaging; assay type: in vivo, Balb/c mice; conditions: single RO injection 50 µM 100 µL; ex vivo fluorescence at 1-120 h
Description: as §1, with “Blood, tumors and major organs (kidney, liver, spleen, pancreas, lung, heart, large and small intestines, bone, muscle, brain) were collected, and imaged ex vivo immediately after necropsy. Blood (200 µL) was imaged in 96-well plates with black bottom and walls.” left out
as §2, with “The lens was kept at a fixed distance from the surface of the organs, within an enclosed (light-protected) area. Calibration curves converting laser and gain settings were established by imaging of pHLIP-ICG solution at different concentrations.” left out

human STING WT protein = biological target: T1, human STING WT protein (Homo sapiens, UniProt Q86WV6); assay: HTRF competitive binding to STING protein (human STING WT binding kit); conditions: HTRF competitive assay, 6His-tagged human STING WT, d2-labelled ligand, 3 h RT; EC50 in method, IC50 in Fig. S1; read-out: binding affinity to STING protein
T1 construct: purchased Cisbio
T1 sequence (Q86WV6 whole entry): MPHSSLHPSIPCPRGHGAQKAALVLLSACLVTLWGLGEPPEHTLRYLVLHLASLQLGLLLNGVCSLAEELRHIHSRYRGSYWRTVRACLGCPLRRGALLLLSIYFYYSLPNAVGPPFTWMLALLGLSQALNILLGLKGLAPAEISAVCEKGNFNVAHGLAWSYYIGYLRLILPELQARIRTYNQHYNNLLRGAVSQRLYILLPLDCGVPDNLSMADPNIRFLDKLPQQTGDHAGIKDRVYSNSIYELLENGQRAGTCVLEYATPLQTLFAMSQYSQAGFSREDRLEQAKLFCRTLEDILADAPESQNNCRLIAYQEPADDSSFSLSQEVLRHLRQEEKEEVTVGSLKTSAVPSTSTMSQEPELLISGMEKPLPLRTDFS
Description: STING WT ligand d2 reagent was premixed with 6His Tb antibodies, and it was added to each well and the plate was incubated for 3 h at RT. Fluorescence intensities at 616 nm and 665 nm excited at […] were recorded on the SpectraMax ID5 plate reader (Molecular Devices). The homogeneous time resolved fluorescence (HTRF) ratio was calculated to establish the binding of each agent to the STING protein and to calculate EC50.

[5] = tested on: THP-1-Blue-ISG cells polarized into M2-type macrophages; assay: Activation of IFN (IRF-SEAP reporter) in M2-polarized macrophages; assay type: cell-based, human; conditions: THP1-Blue-ISG cells polarized by PMA, IL-4/IL-13, 2 h in DMEM without FBS pH 6.9, then 48 h, QUANTI-Blue, absorbance 655 nm, read-out: EC50 of activation of IRF signaling
Description: THP-1-Blue™-ISG cells (Invivogen) expressing an interferon (IFN) regulatory factor (IRF)-inducible secreted embryonic alkaline phosphatase (SEAP) reporter construct were used. Cells were maintained in RPMI growth medium supplemented with L-glutamine, sodium pyruvate, 10% fetal bovine serum (FBS), normocin and ciprofloxacin hydrochloride in a humidified atmosphere of 5% CO2 and 95% air at 37°C. Cells were seeded in 96-well plates at a density of 75,000 cells/well. To generate M2 polarized macrophages, cells were treated first with 185 ng/mL phorbol 12-myristate 13-acetate (PMA) for 6 h and then 20 ng/mL of interleukin 4 (IL-4) and 20 ng/mL of interleukin 13 (IL-13) (both from PeproTech) were added for another 16 h of treatment. […] After a 2-h incubation, an equal volume of RPMI supplemented with 20% heat-inactivated FBS was added, and cells were incubated for another 48 h. SEAP activity was accessed using the QUANTI-Blue™ Solution (Invivogen) to evaluate type I interferon protein levels: 150 μL of the colorimetric reagent was added to 50 μL of cell supernatant for 30 min, 37°C, followed by absorption measurement at 655 nm.

[6] = tested on: CT26 murine colorectal cancer tumors; assay: Treatment of CT26 tumors in mice; assay type: in vivo, Balb/c mice; conditions: two IP injections of 300 µM 500 µL on days 1 and 3; CT26 tumors
Description: For the treatment of CT26 tumors, 5 × 10^4 CT26 murine colorectal cancer cells (ATCC, CRL-2638) were injected subcutaneously (SQ) in 100 μL of growth medium into the right flank of female Balb/c mice ranging in age from 7 to 9 weeks (Envigo RMS, Inc.). […] The compounds were dissolved in DMSO as a stock solution and transferred to PBS (vehicle). The residual DMSO in the final solution injected into animals was less than 2%. Tumor volume and body weight were measured 3 times per week throughout the study. Measurements of tumors were performed using calipers, and the tumor volume (V) was calculated with the formula: V=0.52∙L∙W^2 where L is the length and W is the width of the measured tumor. Mice were removed from the study and euthanized when the tumor volume was greater than 2,000 mm^3.

ADQDNPWRAYLDLLFPTDTLLLDLLWCG [pHLIP-mMSA]
time to completion of linker self-immolation and release of payload in its original form [1]: ≤ 24 h
stability in human plasma (in words) [2]: very high
stability in mouse plasma (in words) ([3]; 0-24 h at 37°C, methanol precipitation, HPLC C18, UV 220/280/325 nm): low

AKDQDNPWRAYLDLLFPTDTLLLDLLWCG [2(ICG-pHLIP)-dMSA, fluorescent version of 2pHLIP-dMSA with ICG dye on a lysine near the N-terminus of each pHLIP]
blood clearance half-life [4]: 32.2 h
accumulation in the tumor (in words) (CT26 tumor): significant accumulation of the agent in the tumor from 1 h and up to 48 h
organ and tissue clearances (in words) (CT26 tumor): slow

COc1cc2cc(C(=O)CCC(=O)O)sc2cc1OC [mMSA, reference compound]
IC50 (human STING WT protein): 7.5 µM
EC50 [5]: 2.2 µM
time within which the cargo released from pHLIP underwent degradation in mouse plasma ([3]; 37°C, HPLC C18, UV): ≤ 24 h
therapeutic activity on animals (in words) [6]: did not demonstrate any activity
